Data set [1] is described as follows: clinical study: sn-1(3) MAG versus fish oil (TAG) in delivering EPA under lipid maldigestion induced by XENICAL. Format: in vivo, human. On the procedure:
This clinical study compared the efficacy of sn-1(3) MAG and fish oil (TAG) in delivering EPA in humans under lipid maldigestion conditions induced by XENICAL® (ORLISTAT). The comparison was tested in volunteers having a BMI of 37-40 kg/m^2 and treated with XENICAL® (ORLISTAT) to induce lipid maldigestion or not treated with XENICAL® (ORLISTAT). The primary objective was to assess accretion of EPA in erythrocytes over 21 days when consumed as fish oil (TAG) or sn-1(3) MAG. The secondary objectives were to assess accretion of EPA in plasma over 21 days and also to assess the pharmacokinetics of EPA after an acute dose either in the form of sn-1(3) MAG or TAG (AUC in chylomicrons over 10 hours postprandial).

Data set [2] can be described thus: lipid maldigestion or malabsorption rat model (XENICAL-induced): EPA level in red blood cell lipids. Format: in vivo. Conditions: rats; for level of EPA incorporated in red blood cells: day 7, with XENICAL (ORLISTAT), FIG. 2. As for the experimental part: The concept was tested in a lipid maldigestion or malabsorption rat model. The maldigestion or malabsorption condition was obtained using XENICAL® (ORLISTAT), a pancreatic and gastric lipases inhibitor (tetrahydrolipstatin; see FIG. 7). Rats were fed during 21 days with long-chain polyunsaturated fatty acid (LC-PUFA) supplements containing mainly eicosapentaenoic (EPA) acid. Fish oil was used as a source of triacylglycerols, and different EPA glycerides were evaluated. XENICAL® (ORLISTAT) was given at a level sufficient to decrease lipid absorption by 40%. A group receiving fish oil without XENICAL® (ORLISTAT) was used as a positive control. At different time intervals (D3, D7, […]), the fatty acid profiles of red blood cell and plasma lipids were determined. At the end of the experiment, the fatty acid profiles of different tissues were determined. The main objective was to follow the level of EPA in red blood cell and plasma lipids. The main comparison evaluated was the difference in EPA level between the group receiving EPA-containing sn-1(3) MAG in combination with XENICAL® (ORLISTAT) and the positive control group (fish oil+XENICAL® (ORLISTAT)). […] This comparison corroborates the validity of the model.

As for `CC/C=C\C/C=C\C/C=C\C/C=C\C/C=C\CCCC(=O)OCC(O)CO` (stereo not shown) [sn-1(3) MAG, sn-1(3)-monoeicosapentaenoylglycerol], in data set [1] (humans, with XENICAL, in comparison to fish oil and XENICAL, p=0.0001, FIG. 5), the “chronic effect: accretion of EPA in erythrocytes after 21 days” value was “statistically significant”. The “chronic effect: accretion of EPA in plasma after 21 days” value in data set [1] (humans, with XENICAL, relative to fish oil and XENICAL, p=0.0003, FIG. 6) was “statistically significant”. Also, the “carrier for EPA” value in data set [1] (obese subjects treated with XENICAL, compared with fish oil (TAG)) was “better carrier for EPA than fish oil (TAG)”. Besides, in data set [2] (conditions of lipid maldigestion or malabsorption), the “incorporation of LC-PUFAs in tissue” value is listed as “improved”. The “level of EPA incorporated in red blood cells” value in data set [2] (compared with fish oil in combination with XENICAL, all P values lower than 0.05) is “statistically higher”; in data set [2] (compared with the fish oil group without XENICAL), “even higher than the fish oil group”.
As for `CCCCCCCCCCC[C@@H](C[C@@H]1OC(=O)[C@H]1CCCCCC)OC(=O)[C@H](CC(C)C)NC=O` [XENICAL® (ORLISTAT), tetrahydrolipstatin, reference compound], the “EPA incorporation in red blood cells” value in data set [2] (day 7, fish oil with XENICAL compared with fish oil without XENICAL) is reported as “decreases EPA incorporation in red blood cells”.

The record behind these values is patent US20160263073A1, “MONOACYLGLYCEROLS FOR USE IN THE TREATMENT OF MALABSORPTION HAVING A MECHANICAL BASIS” (NESTEC S.A., priority 2013, published 2016).
